According to patent publication US20240398787A1, “TREATMENT OF MAJOR DEPRESSIVE DISORDER” (AbbVie Inc., priority 2021, published 2024):

Experiments:
Format in all cases: in vivo, human
[1] = system: patients with major depressive disorder (MDD); test: Hamilton Anxiety Rating Scale (HAM-A) total score, Clinical Study A; conditions: for LS mean change from baseline to week 6, HAM-A / LSMD vs placebo, HAM-A: MMRM; for HAM-A remission rate (total score ≤7) / HAM-A remission, odds ratio vs placebo / HAM-A response rate (≥50% score reduction from baseline) / HAM-A response, odds ratio vs placebo / LSMD vs placebo, HAM-A: week 6; for HAM-A remission rate (total score ≤7) / HAM-A remission, odds ratio vs placebo / HAM-A response rate (≥50% score reduction from baseline) / HAM-A response, odds ratio vs placebo: LOCF
Experimental: (§1) A global, multicenter, randomized, double-blind (DB), placebo-controlled, parallel-group, fixed-dose study compared cariprazine 1.5 mg/day and cariprazine 3 mg/day with placebo as an adjunctive treatment to ongoing ADT in outpatients with a diagnosis of MDD (via the Diagnostic and Statistical Manual of Mental Disorders, Fifth Edition [DSM-5]) having an inadequate response, as measured by the modified Antidepressant Treatment Response Questionnaire (ATRQ), to 1 to 3 antidepressants administered during the current episode at an adequate dose and adequate duration. Adequate dose was defined as a dose above the minimum labeled dose (per package insert). Adequate duration was defined as continuous ADT treatment for at least 6 weeks, with a minimum of 3 of 6 weeks above the minimal dose.
(§2) The study consisted of up to 14 days screening (with up to an additional 7 days of needed) and washout of prohibited medications followed by 6 weeks of double-blind (DB) treatment followed by a 4-week safety follow-up. At the end of the screening period, patients meeting the entry criteria for the study were randomized (1:1:1) to 1 of 3 double-blind treatment groups. Study treatment groups were: cariprazine 1.5 mg/day+antidepressant therapy and cariprazine 3 mg/day+antidepressant therapy. The control group received matching placebo+antidepressant therapy.
(§3) Dosage/Dose Regimen: Investigational product (cariprazine or placebo) in the form of capsules packaged in blister packs will be provided. No investigational product was administered during the screening/washout period; patients continued the same antidepressant and dose they were on at screening. Patients were taking more than one antidepressant at screening, regardless of the indication, discontinued all other antidepressants prior to baseline (Visit 2). During the double-blind treatment period (6 weeks), patients were administered 1 capsule orally per day in addition to their ongoing ADT. Patients in the 1.5 mg/day+ADT arm were administered 1.5 mg+ADT starting at Visit 2 (Week 0). Patients in the 3 mg/day+ADT arm were administered 1.5 mg+ADT starting at Visit 2 (Week 0) for 2 weeks and then titrate to 3 mg/day+ADT starting at Visit 4 (Week 2). Patients were supplied with identically appearing capsules of either cariprazine 1.5 mg, cariprazine 3 mg, or placebo.
(§4) A randomized, double-blind, placebo-controlled, multicenter trial with 759 participants was conducted in United States, Bulgaria, Estonia, Germany, Hungary, Ukraine, and the United Kingdom. Following a screening period of up to 14 days (with up to an additional 7 days if needed), which included a washout of prohibited psychotropic medications except for ongoing ADT, patients with a partial response to their antidepressant monotherapy were randomized into three treatment groups (1:1:1). One group received cariprazine 1.5 mg/d+ADT, one received cariprazine 3.0 mg/d+ADT, and one group received placebo+ADT. All participants randomized to cariprazine began on 1.5 mg/d; cariprazine 1.5 mg/d patients remained at that dosage, while cariprazine 3.0 mg/d patients received 1.5 mg/d for 2 weeks and increased to 3.0 mg/d on day 15.
(§5) The primary and secondary efficacy parameters were change from baseline to week 6 in Montgomery-Åsberg Depression Rating Scale (MADRS) total score and Clinical Global Impressions-Severity (CGI-S) score, respectively (screening, baseline, and weeks 1, 2, 4, and 6). Additional efficacy parameters (screening, baseline, and ≥1 double-blind visit) included: MADRS response (≥50% MADRS total score reduction) and remission (MADRS total score ≤10); change from baseline in HAMD-17 total score and Hamilton Anxiety Rating Scale (HAM-A) total score (32); and Clinical Global Impressions-Improvement (CGI-I) score and response (CGI-I score ≤2).
The Hamilton Anxiety Rating Scale (HAM-A) (Hamilton 1959) is a clinician-rated scale which consists of 14 items, each rated on a 5-point scale ranging from 0 (not present) to 4 (very severe). […]

[2] = system: patients with major depressive disorder (MDD); test: Clinical Global Impressions-Improvement (CGI-I) score and response, Clinical Study A; conditions: for CGI-I response rate (score ≤2): LOCF; for CGI-I LS Mean (change from baseline to week 6) / LSMD vs placebo, CGI-I: MMRM
Experimental: as §1, §2, §3, §4
as §5, with “≤2). […]” for “≤2).”

[3] = system: patients with major depressive disorder (MDD); test: Hamilton Depression Rating Scale-17 (HAMD-17) total score, Clinical Study A; conditions: ANCOVA and LOCF; for LSMD vs placebo, HAMD-17: week 6
Experimental: as §1, §2, §3
A randomized, double-blind, placebo-controlled, multicenter trial with 759 participants was conducted in United States, Bulgaria, Estonia, Germany, Hungary, Ukraine, and the United Kingdom. […]

## CN(C)C(=O)N[C@H]1CC[C@H](CCN2CCN(c3cccc(Cl)c3Cl)CC2)CC1 [Cariprazine, trans-N-{4-[2-[4-(2,3-dichlorophenyl)piperazin-1-yl]ethyl]cyclohexyl}-N′,N′-dimethylurea]
[1]; 1.5 mg/d + ADT
  LS mean change from baseline to week 6, HAM-A: −9.1
  HAM-A remission rate (total score ≤7): 28.7%
  HAM-A remission, odds ratio vs placebo: 1.2
  HAM-A response rate (≥50% score reduction from baseline): 40.9%
  HAM-A response, odds ratio vs placebo: 1.3
  LSMD vs placebo, HAM-A: −1.3
[1]; 3 mg/d + ADT
  LS mean change from baseline to week 6, HAM-A: −8.6
  LSMD vs placebo, HAM-A: −0.8
[1]; 3.0 mg/d + ADT
  HAM-A remission rate (total score ≤7): 27.9%
  HAM-A remission, odds ratio vs placebo: 1.1
  HAM-A response rate (≥50% score reduction from baseline): 41.0%
  HAM-A response, odds ratio vs placebo: 1.3
[2]; 1.5 mg/d + ADT, week 6
  CGI-I response rate (score ≤2): 51.2%
  CGI-I LS Mean (change from baseline to week 6): 2.6
  LSMD vs placebo, CGI-I: −0.3
[2]; 1.5 mg/day + ADT, week 1
  CGI-I responders (score ≤2): 29 (11.6) n (%)
  CGI-I response, odds ratio vs placebo (95% CI): 2.0 (1.0, 3.8)
[2]; 1.5 mg/day + ADT, week 2
  CGI-I responders (score ≤2): 67 (26.8) n (%)
  CGI-I response, odds ratio vs placebo (95% CI): 1.4 (0.9, 2.1)
[2]; 1.5 mg/day + ADT, week 4
  CGI-I responders (score ≤2): 115 (46.0) n (%)
  CGI-I response, odds ratio vs placebo (95% CI): 1.6 (1.1, 2.3)
[2]; 1.5 mg/day + ADT, week 6
  CGI-I responders (score ≤2): 128 (51.2) n (%)
[2]; 3.0 mg/d + ADT, week 6
  CGI-I response rate (score ≤2): 50.4%
[2]; 3 mg/d + ADT, week 6
  CGI-I LS Mean (change from baseline to week 6): 2.6
  LSMD vs placebo, CGI-I: −0.3
[2]; 3 mg/day + ADT, week 1
  CGI-I responders (score ≤2): 20 (7.9) n (%)
  CGI-I response, odds ratio vs placebo (95% CI): 1.3 (0.6, 2.6)
[2]; 3 mg/day + ADT, week 2
  CGI-I responders (score ≤2): 62 (24.6) n (%)
  CGI-I response, odds ratio vs placebo (95% CI): 1.2 (0.8, 1.9)
[2]; 3 mg/day + ADT, week 4
  CGI-I responders (score ≤2): 102 (40.5) n (%)
  CGI-I response, odds ratio vs placebo (95% CI): 1.3 (0.9, 1.8)
[2]; 3 mg/day + ADT, week 6
  CGI-I responders (score ≤2): 127 (50.4) n (%)
[3]; 1.5 mg/d + ADT
  LS mean change from baseline to week 6, HAMD-17 total score: −12.7
  LSMD vs placebo, HAMD-17: −2.1
[3]; 3 mg/d + ADT
  LS mean change from baseline to week 6, HAMD-17 total score: −11.9
  LSMD vs placebo, HAMD-17: −1.2
